These results are taken from patent EP2647379A1, “Combined use of a steroid sulfatase inhibitor for the treatment of endometriosis” (PregLem S.A., priority 2012, dated 2013).

Where two headings read alike, the source gives them in different places. Bounds are passed on as bounds.

Series [1] addresses T1, STS (Homo sapiens, UniProt P08842).
T1 sequence (P08842 22-583): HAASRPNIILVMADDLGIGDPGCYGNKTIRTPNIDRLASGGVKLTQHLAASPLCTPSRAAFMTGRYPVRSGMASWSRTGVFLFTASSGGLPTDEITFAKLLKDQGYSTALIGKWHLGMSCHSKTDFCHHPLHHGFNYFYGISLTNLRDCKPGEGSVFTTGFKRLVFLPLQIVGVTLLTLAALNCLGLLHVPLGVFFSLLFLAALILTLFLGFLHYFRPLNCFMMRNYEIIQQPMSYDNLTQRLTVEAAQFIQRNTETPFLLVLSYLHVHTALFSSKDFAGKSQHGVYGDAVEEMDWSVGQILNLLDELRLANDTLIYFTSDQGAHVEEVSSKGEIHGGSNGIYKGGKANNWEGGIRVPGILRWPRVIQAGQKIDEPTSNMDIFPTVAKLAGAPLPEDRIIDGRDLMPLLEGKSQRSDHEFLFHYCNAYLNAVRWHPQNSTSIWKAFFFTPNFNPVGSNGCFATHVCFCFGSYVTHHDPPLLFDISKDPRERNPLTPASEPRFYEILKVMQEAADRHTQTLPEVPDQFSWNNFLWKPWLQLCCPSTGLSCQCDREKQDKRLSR
The following applies: cited from earlier work.

Series [2] has as its target T1, STS. To be noted: for AVG [%]: Average inhibition of Steroid Sulfatase in endometrium, Mean (SD), N = 8.
Protocol: (§1) Blood samples were collected from each subject in order to determine pharmacodynamic parameters (sulfatase activity and hormonal profile). Ovarian and endometrium transvaginal ultrasounds throughout the study and an endometrial biopsy were performed.
(§2) The biopsy was scheduled between 5 to 8 days before the anticipated onset of the next menstrual cycle after treatment and 1 month after treatment cessation.
(§3) STS activity was determined by spiking specimens with labelled EI-S and by measuring its conversion to E1 per gram protein under standardized incubation conditions using LC-MS/MS. Protein concentration was evaluated with a validated colorimetric assay (Bradford method).
Series [3] addresses T1, STS. The series is described as follows: in vivo.
Protocol: as §1, §2, §3
Series [4] has as its system STS activity. The source says: The above effect is confirmed on functional biomarkers of STS activity for at least 84 days. As described before, STS converts sulphate precursors of estrogens. Thus, by inhibiting STS activity a reduction in serum levels of estrone and DHEA and an increase in estrone sulphate and DHEA sulphate are expected. This effect is described by baseline corrected fold-changes of the E1-S to E1 and DHEA-S to DHEA ratios over time (study days).

Series [5] has as its target STS (Mus musculus, UniProt P50427). To be noted: mice, cited from earlier work.
A short description of series [6]: Follow-up effect on post-treatment menstruation cycles (ovarian and transvaginal ultrasound). From the text:
Menstruation cycle length was not influenced by the treatment. […] Sizes of right and left ovary differed slightly for each subject, but no clinically relevant changes were identified by the gynaecologists.

For series [7] the following is noted: multiple doses of 4 mg E2MATE, 10 mg NETA, for 4 weeks.
Series [8] is described as follows: Serum hormonal profile (E2, P4, T, D4A) by ELISA. The format is in vivo, healthy pre-menopausal women. To be noted: for mean concentration-time profiles for D4A / mean concentration-time profiles for T: after multiple dose administration; for E2 concentrations / P4 concentrations: mean concentration-time profile, suppression during the first cycle up to Day 29, normal increase on Day 43. For orientation: In an ELISA, binding on a coated surface is turned into a signal by an enzyme label.
Protocol: (§4) Blood samples were collected from each subject in order to determine pharmacodynamic parameters (sulfatase activity and hormonal profile).
(§5) STS activity was determined by spiking specimens with labelled EI-S and by measuring its conversion to E1 per gram protein under standardized incubation conditions using LC-MS/MS. Protein concentration was evaluated with a validated colorimetric assay (Bradford method). The serum samples for hormonal profile were analysed by specific and validated ELISA methods.

The target in series [9] is T1, STS. To be noted: cited from earlier work. The source holds these as a separate data set.
The target of series [10] is T1, STS. The series is described as follows: STS activity in PBMCs (Phase I study, labelled E1-S conversion to E1, LC-MS/MS).
Protocol: as §4, §5
In series [11] the target is T1, STS. The following applies: in vivo.
Protocol: as §4, §5
Where [12] appears, read: maximum during the NETA treatment period (values of days 8 to 29).
Setting [13] is: daily oral 0.5 or 1 mg/kg for 21 days, end of the treatment.

Sequence of STS (Mus musculus, UniProt P50427) (P50427 23-624): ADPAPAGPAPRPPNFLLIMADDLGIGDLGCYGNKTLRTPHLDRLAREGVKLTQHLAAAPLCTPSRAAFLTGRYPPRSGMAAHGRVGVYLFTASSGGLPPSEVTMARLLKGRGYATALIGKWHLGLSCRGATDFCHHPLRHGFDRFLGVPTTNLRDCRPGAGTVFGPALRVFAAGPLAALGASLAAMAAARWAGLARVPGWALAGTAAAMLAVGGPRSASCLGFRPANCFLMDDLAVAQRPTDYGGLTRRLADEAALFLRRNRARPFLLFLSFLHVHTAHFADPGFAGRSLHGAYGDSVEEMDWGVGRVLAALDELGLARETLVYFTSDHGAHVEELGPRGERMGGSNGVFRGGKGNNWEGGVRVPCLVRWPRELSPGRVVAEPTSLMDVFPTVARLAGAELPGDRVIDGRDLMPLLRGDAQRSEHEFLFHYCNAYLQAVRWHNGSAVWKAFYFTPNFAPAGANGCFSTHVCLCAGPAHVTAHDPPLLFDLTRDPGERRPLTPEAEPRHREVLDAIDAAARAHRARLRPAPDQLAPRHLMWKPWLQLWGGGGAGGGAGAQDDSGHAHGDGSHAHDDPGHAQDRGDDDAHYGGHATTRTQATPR

As to `NS(=O)(=O)Oc1ccc2c3c(c(=O)oc2c1)CCCCC3`, the “blocking STS activity in both eutopic and ectopic tissues” value in series [1] is “effective”.

What is called Emax is the size of the effect at its maximum, as opposed to the concentration needed. Usually inhibition stands for the share of the control response that was lost under treatment. As for `C[C@]12CC[C@@H]3c4ccc(OS(N)(=O)=O)cc4CC[C@H]3[C@@H]1CC[C@@H]2O` [E2MATE, Estradiol-3-o-sulfamate], the “AVG [%]” value in [2] is 66.6 (2.7) %. For the same compound, the “AVG (average effect over time (AUC))” value in series [2] (STS inhibition in endometrium samples) worked out at 66.60%. In series [2] (STS inhibition in endometrium samples, second row of Table 2), this compound yielded an After treatment of 87.50%. Further, in series [3] (read-out: Emax (maximal observed effect)), the maximal response (Emax) turned out to be 91%. Further, in series [3] (read-out: STS inhibition in endometrium), the inhibition at 4 mg amounted to 91%. Further, the “Baseline relative change of the DHEA-S / DHEA [%]” value in series [4] (Day 1) worked out at 0%; in [4] (Day 8), 133%; in [4] (Day 15), 116%; in [4] (Day 22) it was 113%; in series [4] (Day 29), 148%; in series [4] (Day 57) it was 195%. Further, the “Baseline relative change of the DHEA-S / DHEA [%]” value in series [4] (Day 85) was 232%; in [4] (Day 113) it was 175%. Besides, the “Baseline relative change of the E1-S / E1 [%]” value in [4] (Day 1) is 0%; in series [4] (Day 8), 208%; in series [4] (Day 15), 282%; in series [4] (Day 22) it was 218%; in series [4] (Day 29), 194%; in series [4] (Day 57), 218%. Besides, the “Baseline relative change of the E1-S / E1 [%]” value in [4] (Day 85) turned out to be 243%; in [4] (Day 113), 400%. For the same compound, the “DHEA-S to DHEA ratios increased” value in series [4] (setting [12]) is recorded as “up to 265%”. Moreover, the “baseline relative mean increases of the E1-S to E1 ratio” value in [4] (setting [12]) is given as “up to 282%”. Also, the “lesion weight and size” value in series [5] (setting [13]) is listed as “decreased”. In addition, the number of lesions result in series [5] (setting [13]) is recorded as “without a reduction”. Moreover, in series [5] (daily oral dose, highest dose (1 mg/kg) for 21 days), the “STS activity inhibition in the uterus or in induced lesions” value was at most 36%. Also, in series [6], the “effect on ovarian size” value is “no apparent effect”. In [7], the tolerability entry was “well tolerated”. The “mean concentration-time profiles for D4A” value in series [8] is recorded as “No relevant differences”. For the same compound, the “mean concentration-time profiles for T” value in [8] is “No relevant differences”. In [8], the E2 concentrations result was “Normal mean concentration-time profiles”. For the same compound, the P4 concentrations result in [8] is on record as “Normal mean concentration-time profiles”. For the same compound, in [9], the STS inhibitor activity result was “active STS inhibitors”.

`C[C@]12CC[C@@H]3c4ccc(OS(N)(=O)=O)cc4CC[C@H]3[C@@H]1CCC2=O` [EMATE, Estrone-3-o-sulfamate]: the STS inhibitor activity entry in series [9] is recorded as “active STS inhibitors”.

`C#C[C@]1(OC(C)=O)CC[C@H]2[C@@H]3CCC4=CC(=O)CC[C@@H]4[C@H]3CC[C@@]21C` [NETA, norethindrone acetate, reference compound]: the “AVG [%]” value in series [2] is recorded as 14.9 (27.0) %. The maximal effect (Emax) in [3] was found to be 46.7%. In series [6], the “effect on ovarian size” value is given as “no apparent effect”. This compound also gave an average inhibition in series [10] of 4%. For the same compound, in [8], the “mean concentration-time profiles for D4A” value is reported as “No relevant differences”, the “mean concentration-time profiles for T” value is “No relevant differences”, the E2 concentrations entry is recorded as “suppressed” and the P4 concentrations result was “suppressed”. Moreover, the inhibition in [11] came out at 12%.
